Experimental data reported in ChEMBL document CHEMBL5303573, “Mapping human microbiome drug metabolism by gut bacteria and their genes” (Nature, 2019).

Assays:
[1] = roseburia intestinalis, 12 h, 2 µM
Description: The drug is tested on Roseburia intestinalis strain: L1-82 for biotransformation. The drug concentrations were measured before and after a 12-h incubation by liquid-chromatography-coupled mass spectrometry (LC–MS)

[2] = The drug is tested on Bacteroides xylanisolvens strain: DSM18836 for biotransformation. The drug concentrations were measured before and after a 12-h incubation by liquid-chromatography-coupled mass spectrometry (LC–MS); conditions: 2 µM
[3] = The drug is tested on Bacteroides uniformis strain: ATCC8492 for biotransformation. The drug concentrations were measured before and after a 12-h incubation by liquid-chromatography-coupled mass spectrometry (LC–MS); conditions: 2 µM
[4] = bacteroides eggerthii, 12 h, 2 µM
Description: The drug is tested on Bacteroides eggerthii strain: DSM20697 for biotransformation. The drug concentrations were measured before and after a 12-h incubation by liquid-chromatography-coupled mass spectrometry (LC–MS)

[5] = limosilactobacillus reuteri cf48-3a, 12 h, 2 µM
Description: The drug is tested on Lactobacillus reuteri CF48-3A strain: BEI HM-102 for biotransformation. The drug concentrations were measured before and after a 12-h incubation by liquid-chromatography-coupled mass spectrometry (LC–MS)

[6] = The drug is tested on Ruminococcus torques strain: ATCC27756 for biotransformation. The drug concentrations were measured before and after a 12-h incubation by liquid-chromatography-coupled mass spectrometry (LC–MS); assay type: ADME; design: dose 2 uM, timepoint 0 vs 12 hours; conditions: 2 µM
[7] = The drug is tested on Bifidobacterium ruminantium strain: fecal isolate for biotransformation. The drug concentrations were measured before and after a 12-h incubation by liquid-chromatography-coupled mass spectrometry (LC–MS); conditions: 2 µM
[8] = The drug is tested on Bacteroides vulgatus strain: ATCC8482 for biotransformation. The drug concentrations were measured before and after a 12-h incubation by liquid-chromatography-coupled mass spectrometry (LC–MS); conditions: phocaeicola vulgatus, 2 µM
[9] = The drug is tested on Odoribacter splanchnicus strain: fecal isolate for biotransformation. The drug concentrations were measured before and after a 12-h incubation by liquid-chromatography-coupled mass spectrometry (LC–MS); conditions: 2 µM
[10] = bacteroides stercoris, 12 h, 2 µM
Description: The drug is tested on Bacteroides stercoris strain: ATCC43183 for biotransformation. The drug concentrations were measured before and after a 12-h incubation by liquid-chromatography-coupled mass spectrometry (LC–MS)

[11] = bifidobacterium adolescentis, 12 h, 2 µM
Description: The drug is tested on Bifidobacterium adolescentis strain: ATCC 15703 for biotransformation. The drug concentrations were measured before and after a 12-h incubation by liquid-chromatography-coupled mass spectrometry (LC–MS)

[12] = The drug is tested on Providencia rettgeri strain: DSM1131 for biotransformation. The drug concentrations were measured before and after a 12-h incubation by liquid-chromatography-coupled mass spectrometry (LC–MS); assay type: ADME; design: dose 2 uM, timepoint 0 vs 12 hours; conditions: 2 µM
[13] = The drug is tested on Clostridium sporogenes strain: ATCC15579 for biotransformation. The drug concentrations were measured before and after a 12-h incubation by liquid-chromatography-coupled mass spectrometry (LC–MS); conditions: 2 µM
[14] = parabacteroides johnsonii, 12 h, 2 µM
Description: The drug is tested on Parabacteroides johnsonii strain: DSM18315 for biotransformation. The drug concentrations were measured before and after a 12-h incubation by liquid-chromatography-coupled mass spectrometry (LC–MS)

[15] = akkermansia muciniphila, 12 h, 2 µM
Description: The drug is tested on Akkermansia muciniphila strain: ATCC BAA-835 for biotransformation. The drug concentrations were measured before and after a 12-h incubation by liquid-chromatography-coupled mass spectrometry (LC–MS)

[16] = bacteroides fragilis, 12 h, 2 µM
Description: The drug is tested on Bacteroides fragilis strain: DS-208 for biotransformation. The drug concentrations were measured before and after a 12-h incubation by liquid-chromatography-coupled mass spectrometry (LC–MS)

[17] = The drug is tested on Coprococcus comes strain: ATCC27758 for biotransformation. The drug concentrations were measured before and after a 12-h incubation by liquid-chromatography-coupled mass spectrometry (LC–MS); assay type: ADME; design: dose 2 uM, timepoint 0 vs 12 hours; conditions: 2 µM
[18] = The drug is tested on Clostridium asparagiforme strain: DSM15981 for biotransformation. The drug concentrations were measured before and after a 12-h incubation by liquid-chromatography-coupled mass spectrometry (LC–MS); assay type: ADME; design: dose 2 uM, timepoint 0 vs 12 hours; conditions: enterocloster asparagiformis, 2 µM
[19] = The drug is tested on Eubacterium rectale strain: ATCC33656 for biotransformation. The drug concentrations were measured before and after a 12-h incubation by liquid-chromatography-coupled mass spectrometry (LC–MS); conditions: agathobacter rectalis, 2 µM
[20] = bacteroides fragilis, 12 h, 2 µM; remark: listed apart in the source
Description: The drug is tested on Bacteroides fragilis strain: 3397 (T10) for biotransformation. The drug concentrations were measured before and after a 12-h incubation by liquid-chromatography-coupled mass spectrometry (LC–MS)

With CC(=O)O[C@]1(C(C)=O)CC[C@H]2[C@@H]3C=C(Cl)C4=CC(=O)[C@@H]5C[C@@H]5[C@]4(C)[C@H]3CC[C@@]21C [CYPROTERONE ACETATE] the “Bacterial Biotransformation” value [1] was “Compound NOT metabolized”, the “Bacterial Biotransformation” value [2] was “Compound metabolized” and the “Bacterial Biotransformation” value [3] was “Compound metabolized”. For the same compound, the “Bacterial Biotransformation” value [4] was “Compound metabolized”, the “Bacterial Biotransformation” value [5] was “Compound NOT metabolized” and the “Bacterial Biotransformation” value [6] was “Compound NOT metabolized”. For the same compound, the “Bacterial Biotransformation” value [7] was “Compound NOT metabolized”, the “Bacterial Biotransformation” value [8] was “Compound metabolized” and the “Bacterial Biotransformation” value [9] was “Compound metabolized”. The “Bacterial Biotransformation” value [10] was “Compound metabolized”, the “Bacterial Biotransformation” value [11] was “Compound NOT metabolized” and the “Bacterial Biotransformation” value [12] was “Compound NOT metabolized”. For the same compound, the “Bacterial Biotransformation” value [13] was “Compound metabolized”, the “Bacterial Biotransformation” value [14] was “Compound metabolized” and the “Bacterial Biotransformation” value [15] was “Compound NOT metabolized”. The “Bacterial Biotransformation” value [16] was “Compound metabolized”, the “Bacterial Biotransformation” value [17] was “Compound NOT metabolized” and the “Bacterial Biotransformation” value [18] was “Compound NOT metabolized”.
With CNCC[C@H](Oc1cccc2ccccc12)c1cccs1 [DULOXETINE] the “Bacterial Biotransformation” value [1] was “Compound NOT metabolized”, the “Bacterial Biotransformation” value [19] was “Compound NOT metabolized” and the “Bacterial Biotransformation” value [2] was “Compound metabolized”. For the same compound, the “Bacterial Biotransformation” value [3] was “Compound metabolized”, the “Bacterial Biotransformation” value [4] was “Compound NOT metabolized” and the “Bacterial Biotransformation” value [5] was “Compound NOT metabolized”. For the same compound, the “Bacterial Biotransformation” value [6] was “Compound NOT metabolized”, the “Bacterial Biotransformation” value [7] was “Compound metabolized” and the “Bacterial Biotransformation” value [10] was “Compound metabolized”. For the same compound, the “Bacterial Biotransformation” value [11] was “Compound NOT metabolized”, the “Bacterial Biotransformation” value [12] was “Compound metabolized” and the “Bacterial Biotransformation” value [14] was “Compound metabolized”. For the same compound, the “Bacterial Biotransformation” value [15] was “Compound metabolized”, the “Bacterial Biotransformation” value [16] was “Compound NOT metabolized” and the “Bacterial Biotransformation” value [18] was “Compound NOT metabolized”.
With COCCCC/C(=N\OCCN)c1ccc(C(F)(F)F)cc1.O=C(O)/C=C\C(=O)O [FLUVOXAMINE MALEATE] the “Bacterial Biotransformation” value [1] was “Compound NOT metabolized”, the “Bacterial Biotransformation” value [19] was “Compound NOT metabolized” and the “Bacterial Biotransformation” value [2] was “Compound NOT metabolized”. The “Bacterial Biotransformation” value [3] was “Compound NOT metabolized”, the “Bacterial Biotransformation” value [4] was “Compound NOT metabolized” and the “Bacterial Biotransformation” value [5] was “Compound NOT metabolized”. The “Bacterial Biotransformation” value [6] was “Compound NOT metabolized”, the “Bacterial Biotransformation” value [7] was “Compound metabolized” and the “Bacterial Biotransformation” value [8] was “Compound metabolized”. The “Bacterial Biotransformation” value [11] was “Compound NOT metabolized”, the “Bacterial Biotransformation” value [12] was “Compound NOT metabolized” and the “Bacterial Biotransformation” value [20] was “Compound metabolized”. The “Bacterial Biotransformation” value [14] was “Compound NOT metabolized” and the “Bacterial Biotransformation” value [18] was “Compound NOT metabolized”.
In the case of COC(=O)C1=C(C)NC(C)=C(C(=O)OC(C)C)C1c1cccc2nonc12 (stereo not drawn) [ISRADIPINE], the “Bacterial Biotransformation” value [1] is reported as “Compound NOT metabolized”, the “Bacterial Biotransformation” value [2] is reported as “Compound NOT metabolized” and the “Bacterial Biotransformation” value [3] is reported as “Compound NOT metabolized”. The “Bacterial Biotransformation” value [4] was “Compound NOT metabolized”, the “Bacterial Biotransformation” value [5] was “Compound NOT metabolized” and the “Bacterial Biotransformation” value [6] was “Compound NOT metabolized”. The “Bacterial Biotransformation” value [7] was “Compound NOT metabolized”, the “Bacterial Biotransformation” value [8] was “Compound NOT metabolized” and the “Bacterial Biotransformation” value [9] was “Compound NOT metabolized”. The “Bacterial Biotransformation” value [10] was “Compound NOT metabolized”, the “Bacterial Biotransformation” value [11] was “Compound NOT metabolized” and the “Bacterial Biotransformation” value [12] was “Compound NOT metabolized”. The “Bacterial Biotransformation” value [20] was “Compound NOT metabolized”, the “Bacterial Biotransformation” value [13] was “Compound NOT metabolized” and the “Bacterial Biotransformation” value [14] was “Compound NOT metabolized”. The “Bacterial Biotransformation” value [15] was “Compound NOT metabolized”, the “Bacterial Biotransformation” value [16] was “Compound NOT metabolized” and the “Bacterial Biotransformation” value [17] was “Compound NOT metabolized”. The “Bacterial Biotransformation” value [18] was “Compound NOT metabolized”.
With CC(=O)O[C@]1(C(C)=O)CC[C@H]2[C@@H]3C=C(C)C4=CC(=O)CC[C@]4(C)[C@H]3CC[C@@]21C [MEGESTROL ACETATE] the “Bacterial Biotransformation” value [1] was “Compound NOT metabolized”, the “Bacterial Biotransformation” value [19] was “Compound NOT metabolized” and the “Bacterial Biotransformation” value [2] was “Compound metabolized”. For the same compound, the “Bacterial Biotransformation” value [3] was “Compound metabolized”, the “Bacterial Biotransformation” value [4] was “Compound metabolized” and the “Bacterial Biotransformation” value [5] was “Compound NOT metabolized”. The “Bacterial Biotransformation” value [6] was “Compound NOT metabolized”, the “Bacterial Biotransformation” value [7] was “Compound metabolized” and the “Bacterial Biotransformation” value [8] was “Compound metabolized”. For the same compound, the “Bacterial Biotransformation” value [9] was “Compound metabolized”, the “Bacterial Biotransformation” value [10] was “Compound metabolized” and the “Bacterial Biotransformation” value [11] was “Compound metabolized”. For the same compound, the “Bacterial Biotransformation” value [20] was “Compound metabolized”, the “Bacterial Biotransformation” value [14] was “Compound metabolized” and the “Bacterial Biotransformation” value [16] was “Compound metabolized”. For the same compound, the “Bacterial Biotransformation” value [17] was “Compound NOT metabolized” and the “Bacterial Biotransformation” value [18] was “Compound NOT metabolized”.
With CN1CCN2c3ccccc3Cc3ccccc3C2C1 (stereo not drawn) [MIANSERIN] the “Bacterial Biotransformation” value [19] was “Compound NOT metabolized”, the “Bacterial Biotransformation” value [3] was “Compound NOT metabolized” and the “Bacterial Biotransformation” value [4] was “Compound NOT metabolized”. For the same compound, the “Bacterial Biotransformation” value [5] was “Compound NOT metabolized”, the “Bacterial Biotransformation” value [6] was “Compound NOT metabolized” and the “Bacterial Biotransformation” value [7] was “Compound NOT metabolized”. The “Bacterial Biotransformation” value [9] was “Compound NOT metabolized”, the “Bacterial Biotransformation” value [10] was “Compound NOT metabolized” and the “Bacterial Biotransformation” value [11] was “Compound NOT metabolized”. The “Bacterial Biotransformation” value [20] was “Compound NOT metabolized”, the “Bacterial Biotransformation” value [13] was “Compound NOT metabolized” and the “Bacterial Biotransformation” value [15] was “Compound NOT metabolized”. For the same compound, the “Bacterial Biotransformation” value [16] was “Compound NOT metabolized”, the “Bacterial Biotransformation” value [17] was “Compound NOT metabolized” and the “Bacterial Biotransformation” value [18] was “Compound NOT metabolized”.
With CCN(CC)CCOC(=O)C(Cc1cccc2ccccc12)CC1CCCO1.O=C(O)C(=O)O (stereo not drawn) [NAFRONYL OXALATE] the “Bacterial Biotransformation” value [1] was “Compound NOT metabolized”, the “Bacterial Biotransformation” value [19] was “Compound NOT metabolized” and the “Bacterial Biotransformation” value [2] was “Compound NOT metabolized”. The “Bacterial Biotransformation” value [3] was “Compound metabolized”, the “Bacterial Biotransformation” value [4] was “Compound NOT metabolized” and the “Bacterial Biotransformation” value [5] was “Compound NOT metabolized”. For the same compound, the “Bacterial Biotransformation” value [6] was “Compound NOT metabolized”, the “Bacterial Biotransformation” value [7] was “Compound metabolized” and the “Bacterial Biotransformation” value [8] was “Compound metabolized”. The “Bacterial Biotransformation” value [9] was “Compound metabolized”, the “Bacterial Biotransformation” value [10] was “Compound NOT metabolized” and the “Bacterial Biotransformation” value [11] was “Compound NOT metabolized”. For the same compound, the “Bacterial Biotransformation” value [20] was “Compound NOT metabolized”, the “Bacterial Biotransformation” value [13] was “Compound NOT metabolized” and the “Bacterial Biotransformation” value [15] was “Compound NOT metabolized”. For the same compound, the “Bacterial Biotransformation” value [16] was “Compound NOT metabolized”, the “Bacterial Biotransformation” value [17] was “Compound NOT metabolized” and the “Bacterial Biotransformation” value [18] was “Compound NOT metabolized”.
For C=CCN1CC[C@]23c4c5ccc(O)c4O[C@H]2C(=O)CC[C@@]3(O)[C@H]1C5 [NALOXONE], the “Bacterial Biotransformation” value [1] was “Compound metabolized”, the “Bacterial Biotransformation” value [2] was “Compound metabolized” and the “Bacterial Biotransformation” value [3] was “Compound metabolized”. For the same compound, the “Bacterial Biotransformation” value [4] was “Compound metabolized”, the “Bacterial Biotransformation” value [5] was “Compound metabolized” and the “Bacterial Biotransformation” value [6] was “Compound metabolized”. For the same compound, the “Bacterial Biotransformation” value [7] was “Compound NOT metabolized”, the “Bacterial Biotransformation” value [8] was “Compound metabolized” and the “Bacterial Biotransformation” value [9] was “Compound NOT metabolized”. For the same compound, the “Bacterial Biotransformation” value [11] was “Compound metabolized”, the “Bacterial Biotransformation” value [12] was “Compound NOT metabolized” and the “Bacterial Biotransformation” value [20] was “Compound metabolized”. The “Bacterial Biotransformation” value [13] was “Compound metabolized”, the “Bacterial Biotransformation” value [14] was “Compound metabolized” and the “Bacterial Biotransformation” value [15] was “Compound metabolized”. For the same compound, the “Bacterial Biotransformation” value [16] was “Compound metabolized”, the “Bacterial Biotransformation” value [17] was “Compound NOT metabolized” and the “Bacterial Biotransformation” value [18] was “Compound NOT metabolized”.
For C#C[C@]1(OC(C)=O)CC[C@H]2[C@@H]3CCC4=C/C(=N/O)CC[C@@H]4[C@H]3CC[C@@]21CC [NORGESTIMATE], the “Bacterial Biotransformation” value [1] was “Compound NOT metabolized”, the “Bacterial Biotransformation” value [19] was “Compound metabolized” and the “Bacterial Biotransformation” value [2] was “Compound NOT metabolized”. For the same compound, the “Bacterial Biotransformation” value [3] was “Compound metabolized”, the “Bacterial Biotransformation” value [4] was “Compound NOT metabolized” and the “Bacterial Biotransformation” value [6] was “Compound NOT metabolized”. For the same compound, the “Bacterial Biotransformation” value [7] was “Compound NOT metabolized”, the “Bacterial Biotransformation” value [11] was “Compound NOT metabolized” and the “Bacterial Biotransformation” value [12] was “Compound NOT metabolized”. For the same compound, the “Bacterial Biotransformation” value [20] was “Compound NOT metabolized”, the “Bacterial Biotransformation” value [14] was “Compound metabolized” and the “Bacterial Biotransformation” value [16] was “Compound NOT metabolized”. For the same compound, the “Bacterial Biotransformation” value [17] was “Compound NOT metabolized” and the “Bacterial Biotransformation” value [18] was “Compound NOT metabolized”.
